# Assay results as given in article PMC3145970, “Specific CLK Inhibitors from a Novel Chemotype for Regulation of Alternative Splicing” (Chemistry & Biology, 2011).
# Read-outs that look alike come from different tables or passages of the source.
# Tests used:
# Experiment in all cases: Thermal stability shift assay
# Format in all cases: binding
# PKACa = PKACa (Homo sapiens, UniProt P17612); details: read-out: Tm shift PKACa
# How it was run: (§1)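 Protein at 2 μM was heated with 10 μM inhibitor in 10 mM HEPES pH 7.5, 500 mM NaCl containing SyproOrange (1:1000 dilution); thermal denaturation was followed by fluorescence in a real-time PCR instrument.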
# TTK = biological target: T1, TTK (Homo sapiens, UniProt P33981); details: read-out: Tm shift TTK
# T1 sequence (P33981 1-857): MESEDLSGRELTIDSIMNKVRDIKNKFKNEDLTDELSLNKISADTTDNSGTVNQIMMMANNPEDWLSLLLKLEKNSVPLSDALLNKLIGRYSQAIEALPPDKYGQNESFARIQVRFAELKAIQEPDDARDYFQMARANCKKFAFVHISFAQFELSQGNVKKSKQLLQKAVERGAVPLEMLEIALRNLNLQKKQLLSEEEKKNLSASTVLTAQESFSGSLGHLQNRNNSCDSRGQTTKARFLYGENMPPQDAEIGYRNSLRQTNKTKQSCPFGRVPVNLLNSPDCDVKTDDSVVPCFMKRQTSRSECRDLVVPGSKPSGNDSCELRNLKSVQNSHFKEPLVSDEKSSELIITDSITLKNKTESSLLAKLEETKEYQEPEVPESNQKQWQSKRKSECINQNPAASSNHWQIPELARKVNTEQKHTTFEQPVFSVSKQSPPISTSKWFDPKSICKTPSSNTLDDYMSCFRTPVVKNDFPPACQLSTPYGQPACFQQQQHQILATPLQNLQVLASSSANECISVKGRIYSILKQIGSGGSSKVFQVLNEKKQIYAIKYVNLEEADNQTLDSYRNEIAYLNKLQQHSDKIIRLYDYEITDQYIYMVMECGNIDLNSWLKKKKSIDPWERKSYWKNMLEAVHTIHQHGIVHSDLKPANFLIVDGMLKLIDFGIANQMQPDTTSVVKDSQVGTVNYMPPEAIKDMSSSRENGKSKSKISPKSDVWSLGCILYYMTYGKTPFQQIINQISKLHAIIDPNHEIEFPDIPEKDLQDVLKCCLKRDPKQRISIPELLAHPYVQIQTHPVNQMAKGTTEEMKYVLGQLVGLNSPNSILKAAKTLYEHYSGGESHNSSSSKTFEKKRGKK
# How it was run: as §1
# PRKX = biological target: T2, PRKX (Homo sapiens, UniProt P51817); details: read-out: Tm shift PRKX
# T2 sequence (P51817 1-358): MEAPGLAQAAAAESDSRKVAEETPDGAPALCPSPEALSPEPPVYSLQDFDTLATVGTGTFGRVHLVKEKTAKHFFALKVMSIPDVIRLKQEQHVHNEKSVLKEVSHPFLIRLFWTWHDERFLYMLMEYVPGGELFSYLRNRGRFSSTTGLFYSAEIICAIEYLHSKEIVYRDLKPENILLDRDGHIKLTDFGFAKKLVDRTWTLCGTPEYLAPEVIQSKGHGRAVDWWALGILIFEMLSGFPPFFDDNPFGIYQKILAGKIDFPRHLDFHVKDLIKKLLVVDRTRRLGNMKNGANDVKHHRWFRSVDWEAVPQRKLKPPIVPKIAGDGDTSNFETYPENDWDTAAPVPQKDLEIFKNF
# How it was run: as §1
# DAPK3 = biological target: T3, DAPK3 (Homo sapiens, UniProt O43293); details: read-out: Tm shift DAPK3
# T3 construct: purchased in-house (SGC Oxford thermal shift panel)
# T3 sequence (O43293 whole entry): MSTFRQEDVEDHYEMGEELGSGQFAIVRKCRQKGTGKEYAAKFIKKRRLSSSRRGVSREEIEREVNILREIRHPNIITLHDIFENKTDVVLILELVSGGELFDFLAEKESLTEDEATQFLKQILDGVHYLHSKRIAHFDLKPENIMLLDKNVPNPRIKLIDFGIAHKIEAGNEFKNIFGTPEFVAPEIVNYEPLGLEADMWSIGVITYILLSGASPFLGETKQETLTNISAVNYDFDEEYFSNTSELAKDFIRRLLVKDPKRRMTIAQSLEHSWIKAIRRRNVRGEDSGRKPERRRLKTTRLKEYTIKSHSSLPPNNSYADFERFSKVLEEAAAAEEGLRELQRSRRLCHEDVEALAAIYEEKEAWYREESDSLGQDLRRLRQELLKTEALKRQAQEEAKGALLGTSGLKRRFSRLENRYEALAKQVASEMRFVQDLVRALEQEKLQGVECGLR
# How it was run: as §1
# DRAK2 = biological target: T4, DRAK2 (Homo sapiens, UniProt O94768); details: read-out: Tm shift DRAK2
# T4 construct: purchased in-house (SGC Oxford thermal shift panel)
# T4 sequence (O94768 1-372): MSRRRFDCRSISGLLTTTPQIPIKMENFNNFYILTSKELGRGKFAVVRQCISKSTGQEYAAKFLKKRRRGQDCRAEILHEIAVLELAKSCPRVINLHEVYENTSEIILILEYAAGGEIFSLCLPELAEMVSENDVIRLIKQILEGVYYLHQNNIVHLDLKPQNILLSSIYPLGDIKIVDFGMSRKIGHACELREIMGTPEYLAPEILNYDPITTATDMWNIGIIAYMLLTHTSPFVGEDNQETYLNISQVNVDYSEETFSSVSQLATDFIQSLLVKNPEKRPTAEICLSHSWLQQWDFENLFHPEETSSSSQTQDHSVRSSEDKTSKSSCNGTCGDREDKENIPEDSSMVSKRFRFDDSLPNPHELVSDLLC
# How it was run: as §1
# IKKb = biological target: T5, IKKb (Homo sapiens, UniProt O14920); details: read-out: Tm shift IKKb
# T5 construct: purchased in-house (SGC Oxford thermal shift panel)
# T5 sequence (O14920 1-756): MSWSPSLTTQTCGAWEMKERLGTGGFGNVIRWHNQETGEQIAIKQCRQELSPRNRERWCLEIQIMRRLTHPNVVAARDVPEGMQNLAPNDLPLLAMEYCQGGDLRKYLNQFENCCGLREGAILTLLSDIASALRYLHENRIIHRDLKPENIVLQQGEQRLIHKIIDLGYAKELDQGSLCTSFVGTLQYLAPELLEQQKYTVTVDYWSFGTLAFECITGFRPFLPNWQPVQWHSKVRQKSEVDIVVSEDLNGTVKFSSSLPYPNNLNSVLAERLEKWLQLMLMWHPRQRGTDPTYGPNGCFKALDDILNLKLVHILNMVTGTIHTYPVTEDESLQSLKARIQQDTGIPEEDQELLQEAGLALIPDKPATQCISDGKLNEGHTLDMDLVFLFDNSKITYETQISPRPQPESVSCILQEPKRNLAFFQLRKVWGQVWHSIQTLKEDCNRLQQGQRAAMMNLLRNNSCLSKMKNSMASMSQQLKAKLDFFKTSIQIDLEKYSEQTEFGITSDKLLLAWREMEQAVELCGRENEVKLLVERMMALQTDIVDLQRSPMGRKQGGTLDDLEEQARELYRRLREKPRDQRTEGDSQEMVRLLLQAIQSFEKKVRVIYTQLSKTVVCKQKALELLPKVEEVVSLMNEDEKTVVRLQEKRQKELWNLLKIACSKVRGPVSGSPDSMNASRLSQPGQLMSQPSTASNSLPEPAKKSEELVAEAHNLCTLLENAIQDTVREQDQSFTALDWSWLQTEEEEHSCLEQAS
# How it was run: as §1
# YANK1 = YANK1 (Homo sapiens, UniProt Q8WU08); details: read-out: Tm shift YANK1
# Chain of YANK1 (Q8WU08 whole entry): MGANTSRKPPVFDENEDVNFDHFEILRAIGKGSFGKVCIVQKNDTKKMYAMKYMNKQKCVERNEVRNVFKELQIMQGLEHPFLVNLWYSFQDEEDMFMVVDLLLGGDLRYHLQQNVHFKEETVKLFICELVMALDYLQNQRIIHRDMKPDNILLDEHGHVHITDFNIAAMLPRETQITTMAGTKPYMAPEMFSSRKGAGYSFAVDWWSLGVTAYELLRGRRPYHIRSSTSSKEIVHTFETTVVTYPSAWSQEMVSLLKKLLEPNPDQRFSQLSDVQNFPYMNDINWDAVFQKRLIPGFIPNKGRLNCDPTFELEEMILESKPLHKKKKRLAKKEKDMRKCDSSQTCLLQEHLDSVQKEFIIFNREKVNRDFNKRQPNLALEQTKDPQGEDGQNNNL
# How it was run: as §1
Compound,ΔTm at 10 µM (PKACa),ΔTm at 10 µM (TTK),ΔTm at 10 µM (PRKX),ΔTm at 10 µM (DAPK3),ΔTm at 10 µM (DRAK2),ΔTm at 10 µM (IKKb),ΔTm at 10 µM (YANK1),ΔTm at 10 µM (PKACa; inhibitor 10 μM),ΔTm at 10 µM (TTK; inhibitor 10 μM),ΔTm at 10 µM (PRKX; inhibitor 10 μM),ΔTm at 10 µM (DAPK3; inhibitor 10 μM),ΔTm at 10 µM (DRAK2; inhibitor 10 μM),ΔTm at 10 µM (IKKb; inhibitor 10 μM),ΔTm at 10 µM (YANK1; inhibitor 10 μM)
"CCOC(=O)c1c(C(C#N)=CN)c2ccc(Cl)c(Cl)c2n1C (mixture of isomers) [KH-CB20, (E/Z)-Ethyl 3-(2-Amino-1-Cyanovinyl)-6,7-Dichloro-1-Methyl-1H-Indole-2-Carboxylate]",0.3 °C,0.3 °C,0.4 °C,2.2 °C,1.5 °C,0.1 °C,-0.3 °C,,,,,,,
"CCOC(=O)c1c(C(C#N)=CN(C)C)c2ccc(Cl)c(Cl)c2n1C (mixture of isomers) [compound 2, (E/Z)-Ethyl 6,7-Dichloro-3-[1-Cyano-2-(Dimethylamino)Vinyl]-1-Methyl-1H-Indole-2-Carboxylate]",,,,,,,,0.2 °C,-0.1 °C,0.3 °C,0.3 °C,0 °C,0.6 °C,0 °C
"NC1=NC(=O)/C(=C2\CCNC(=O)c3[nH]c(Br)cc32)N1 [Hymenialdisine, hymenialdisine, reference compound]",,,,,,,,0.8 °C,0.7 °C,0.3 °C,7.6 °C,13 °C,0.7 °C,0 °C
"CCOC(=O)c1c(/C(C#N)=C\N)c2ccc(Cl)c(Cl)c2n1C [KH-CB19, (E)-Ethyl 3-(2-Amino-1-Cyanovinyl)-6,7-Dichloro-1-Methyl-1H-Indole-2-Carboxylate]",0 °C,0.5 °C,0.5 °C,2.2 °C,1.7 °C,-0.1 °C,-0.2 °C,,,,,,,
"Cn1c2c(Cl)c(Cl)ccc2c2c(C#N)c[nH]c(=O)c21 [compound 3, 7,8-Dichloro-9-Methyl-1-Oxo-2,9-Dihydro-1H-Pyrido[3,4-b]Indole-4-Carbonitrile]",,,,,,,,0.4 °C,1.8 °C,0.5 °C,2 °C,0.9 °C,0.5 °C,0.3 °C
